Reference: patent US3992371A, “Penicillins substituted with heterocyclic and substituted phenyl groups” (Sumitomo Chemical Company, Limited, priority 1973, dated 1976)
≈ marks a conversion by molar mass, not a printed value. Counter-ions that a name gives are not always drawn.

Key:
Pseudomonas = conditions: background statement; cited from earlier work
[1] = tested on: gram-positive and gram-negative bacteria; conditions: background statement; cited from earlier work
Escherichia coli NIHJ = assay: Minimal inhibitory concentration, agar dilution method; assay type: cell-based
From the text: (§1) When determined according to the agar dilution method, the penicillins (I) afford the minimal inhibitory concentrations against test microorganisms as shown in Table 2.

[2] = tested on: Klebsiella pneumoniae PCI602; assay: as above; assay type: cell-based
From the text: as §1

[3] = tested on: Pseudomonas aeruginosa 104; assay: as above; assay type: cell-based
From the text: as §1

[4] = tested on: Staphylococcus aureus 209P; assay: as above; assay type: cell-based
From the text: as §1

Proteus miravilis GN2425 = assay: as above; assay type: cell-based
Proteus vulgaris HV19 = assay: as above; assay type: cell-based

Molecule | MIC (Escherichia coli NIHJ) [µg/mL] | MIC [2] [µg/mL] | MIC [3] [µg/mL] | MIC [4] [µg/mL] | MIC (Proteus miravilis GN2425) [µg/mL] | MIC (Proteus vulgaris HV19) [µg/mL] | antimicrobial activity against Pseudomonas (Pseudomonas) | inhibition of the growth of gram-positive and gram-negative bacteria [1]
6-(α-amino-isothiazolylacetamido)penicillanic acid |  |  |  |  |  |  | do not exert any appreciable antimicrobial activity against Pseudomonas | inhibit the growth of various gram-positive and gram-negative bacteria
CC1(C)S[C@@H]2[C@H](NC(=O)[C@H](N)C3=CCC=CC3)C(=O)N2[C@H]1C(=O)O [Epicillin] |  |  |  |  |  |  | do not exert any appreciable antimicrobial activity against Pseudomonas | inhibit the growth of various gram-positive and gram-negative bacteria
COc1ccc(C(NC(=O)c2cnc3ccncc3c2O)C(=O)NC2C(=O)N3C2SC(C)(C)C3C(=O)O)cc1 (stereo not shown) [Example 41] | 3.13 (≈ 5.67 µM) | 12.5 (≈ 22.7 µM) | 3.13 (≈ 5.67 µM) | 1.56 (≈ 2.83 µM) | 12.5 (≈ 22.7 µM) | 0.39 (≈ 0.707 µM) |  | 
CC1(C)SC2C(NC(=O)C(NC(=O)c3cnc4nc(N5CCOCC5)ncc4c3O)c3ccc(N)cc3)C(=O)N2C1C(=O)O (stereo not shown) [Example 54] | 3.13 (≈ 5.03 µM) | 6.25 (≈ 10 µM) | 3.13 (≈ 5.03 µM) | 1.56 (≈ 2.51 µM) | 3.13 (≈ 5.03 µM) | 0.05 (≈ 0.0803 µM) |  | 
CC1(C)S[C@@H]2[C@H](NC(=O)C(NC(=O)c3cnc4cccnc4c3O)c3cccc(I)c3)C(=O)N2[C@H]1C(=O)O (stereo partly shown) [Example 11] | 1.56 (≈ 2.41 µM) | 12.5 (≈ 19.3 µM) | 3.13 (≈ 4.83 µM) | 1.56 (≈ 2.41 µM) | 1.56 (≈ 2.41 µM) | 0.05 (≈ 0.0772 µM) |  | 
COc1ccc(C(NC(=O)c2cnc3cn[nH]c3c2O)C(=O)NC2C(=O)N3C2SC(C)(C)C3C(=O)O)cc1 (stereo not shown) [Example 34] | 3.13 (≈ 5.79 µM) | 12.5 (≈ 23.1 µM) | 3.13 (≈ 5.79 µM) | 0.78 (≈ 1.44 µM) | 6.25 (≈ 11.6 µM) | 0.1 (≈ 0.185 µM) |  | 
Cc1nc(O)c2c(O)c(C(=O)NC(C(=O)NC3C(=O)N4C3SC(C)(C)C4C(=O)O)c3cccc(N)c3)cnc2n1 (stereo not shown) [Example 56] | 1.56 (≈ 2.75 µM) | 6.25 (≈ 11 µM) | 3.13 (≈ 5.51 µM) | 1.56 (≈ 2.75 µM) | 3.13 (≈ 5.51 µM) | 0.05 (≈ 0.0881 µM) |  | 
CC1(C)SC2C(NC(=O)C(NC(=O)c3cnc4cc5c(cc4c3S)OCO5)c3cccc(N)c3)C(=O)N2C1C(=O)O (stereo not shown) [Example 36] | 6.25 (≈ 10.5 µM) | 12.5 (≈ 21 µM) | 3.13 (≈ 5.25 µM) | 0.78 (≈ 1.31 µM) | 6.25 (≈ 10.5 µM) | 0.39 (≈ 0.655 µM) |  | 
COc1ccc([C@@H](NC(=O)c2cnc3cccnc3c2O)C(=O)N[C@@H]2C(=O)N3[C@@H]2SC(C)(C)[C@@H]3C(=O)O)cc1 [Example 4, D-α-(4-hydroxy-1,5-naphthyridine-3-carboxamido)-p-methoxybenzylpenicillin sodium salt] | 3.13 | 12.5 | 3.13 | 1.56 | 12.5 | 0.1 |  | 
CCOC(=O)Oc1c(C(=O)NC(C(=O)NC2C(=O)N3C2SC(C)(C)C3C(=O)O)c2ccc(OC)cc2)cnc2ccc(C)nc12 (stereo not shown) [Example 46] | 3.13 (≈ 4.91 µM) | 12.5 (≈ 19.6 µM) | 3.13 (≈ 4.91 µM) | 1.56 (≈ 2.45 µM) | 12.5 (≈ 19.6 µM) | 0.1 (≈ 0.157 µM) |  | 
CN(C)c1ccc([C@@H](NC(=O)c2cnc3cccnc3c2O)C(=O)N[C@@H]2C(=O)N3[C@@H]2SC(C)(C)[C@@H]3C(=O)O)cc1 [Example 5, D-α-(4-hydroxy-1,5-naphthyridine-3-carboxamido)-p-dimethylaminobenzylpenicillin sodium salt] | 3.13 | 6.25 | 1.56 | 1.56 | 6.25 | 0.1 |  | 
CCOC(=O)Oc1c(C(=O)NC(C(=O)N[C@@H]2C(=O)N3[C@@H]2SC(C)(C)[C@@H]3C(=O)O)c2cccc(Cl)c2)cnc2cccnc12 (stereo partly shown) [Example 12] | 1.56 (≈ 2.48 µM) | 12.5 (≈ 19.9 µM) | 3.13 (≈ 4.98 µM) | 1.56 (≈ 2.48 µM) | 1.56 (≈ 2.48 µM) | 0.05 (≈ 0.0796 µM) |  | 
CC1(C)SC2C(NC(=O)C(NC(=O)c3cnc4cc5c(cc4c3O)OCC5)c3cccc(N)c3)C(=O)N2C1C(=O)O (stereo not shown) [Example 49] | 3.13 (≈ 5.42 µM) | 6.25 (≈ 10.8 µM) | 3.13 (≈ 5.42 µM) | 0.78 (≈ 1.35 µM) | 3.13 (≈ 5.42 µM) | 0.2 (≈ 0.346 µM) |  | 
CC1(C)SC2C(NC(=O)C(NC(=O)c3cnc4c5c(ccc4c3O)CCC5)c3cccc(N)c3)C(=O)N2C1C(=O)O (stereo not shown) [Example 50] | 3.13 (≈ 5.44 µM) | 12.5 (≈ 21.7 µM) | 3.13 (≈ 5.44 µM) | 0.78 (≈ 1.35 µM) | 12.5 (≈ 21.7 µM) | 0.39 (≈ 0.677 µM) |  | 
CSc1nc2ccc3ncc(C(=O)NC(C(=O)NC4C(=O)N5C4SC(C)(C)C5C(=O)O)c4cccc(N)c4)c(O)c3c2s1 (stereo not shown) [Example 51] | 3.13 (≈ 4.9 µM) | 6.25 (≈ 9.78 µM) | 3.13 (≈ 4.9 µM) | 0.78 (≈ 1.22 µM) | 3.13 (≈ 4.9 µM) | 0.2 (≈ 0.313 µM) |  | 
CC1(C)SC2C(NC(=O)C(NC(=O)c3cnc4cccnc4c3O)c3cccc(F)c3)C(=O)N2C1C(=O)O (stereo not shown) [Example 47] | 1.56 (≈ 2.89 µM) | 12.5 (≈ 23.2 µM) | 1.56 (≈ 2.89 µM) | 1.56 (≈ 2.89 µM) | 1.56 (≈ 2.89 µM) | 0.05 (≈ 0.0927 µM) |  | 
COc1ccc(C(NC(=O)c2cnc3ccccc3c2S)C(=O)NC2C(=O)N3C2SC(C)(C)C3C(=O)O)cc1 (stereo not shown) [Example 38] | 6.25 (≈ 11 µM) | 12.5 (≈ 22.1 µM) | 3.13 (≈ 5.52 µM) | 0.78 (≈ 1.38 µM) | 6.25 (≈ 11 µM) | 0.39 (≈ 0.688 µM) |  | 
COc1ccc2c(O)c(C(=O)NC(C(=O)N[C@@H]3C(=O)N4[C@@H]3SC(C)(C)[C@@H]4C(=O)O)c3cccc(N)c3)cnc2c1 (stereo partly shown) [Example 20] | 3.13 (≈ 5.53 µM) | 6.25 (≈ 11.1 µM) | 3.13 (≈ 5.53 µM) | 0.78 (≈ 1.38 µM) | 3.13 (≈ 5.53 µM) | 0.1 (≈ 0.177 µM) |  | 

Second part, led by results:

MIC (Escherichia coli NIHJ) [µg/mL] | MIC [2] [µg/mL] | MIC [3] [µg/mL] | MIC [4] [µg/mL] | MIC (Proteus miravilis GN2425) [µg/mL] | MIC (Proteus vulgaris HV19) [µg/mL] | Molecule | antimicrobial activity against Pseudomonas (Pseudomonas) | inhibition of the growth of gram-positive and gram-negative bacteria [1]
0.78 | 6.25 | 1.56 | 1.56 | 0.78 | 0.025 | CC1(C)S[C@@H]2[C@H](NC(=O)[C@H](NC(=O)c3cnc4cccnc4c3O)c3cccc(N)c3)C(=O)N2[C@H]1C(=O)O [Example 1, D-α-(4-hydroxy-1,5-naphthyridine-3-carboxamido)-m-aminobenzylpenicillin sodium salt] |  | 
1.56 (≈ 2.83 µM) | 6.25 (≈ 11.4 µM) | 1.56 (≈ 2.83 µM) | 1.56 (≈ 2.83 µM) | 1.56 (≈ 2.83 µM) | 0.025 (≈ 0.0454 µM) | Cc1ccc2c(O)c(C(=O)NC(C(=O)N[C@@H]3C(=O)N4[C@@H]3SC(C)(C)[C@@H]4C(=O)O)c3cccc(N)c3)cnc2n1 (stereo partly shown) [Example 18] |  | 
0.78 | 12.5 | 1.56 | 1.56 | 1.56 | 0.025 | CC1(C)S[C@@H]2[C@H](NC(=O)[C@H](NC(=O)c3cnc4cccnc4c3O)c3ccc(N)cc3)C(=O)N2[C@H]1C(=O)O [Example 2, D-α-(4-hydroxy-1,5-naphthyridine-3-carboxamido)-p-aminobenzylpenicillin sodium salt] |  | 
0.78 (≈ 1.29 µM) | 6.25 (≈ 10.3 µM) | 1.56 (≈ 2.58 µM) | 1.56 (≈ 2.58 µM) | 1.56 (≈ 2.58 µM) | 0.05 (≈ 0.0826 µM) | CC1(C)SC2C(NC(=O)C(NC(=O)c3cnc4ccc(N5CCCC5)nc4c3O)c3ccc(N)cc3)C(=O)N2C1C(=O)O (stereo not shown) [Example 52] |  | 
0.78 (≈ 1.38 µM) | 6.25 (≈ 11 µM) | 1.56 (≈ 2.75 µM) | 1.56 (≈ 2.75 µM) | 1.56 (≈ 2.75 µM) | 0.05 (≈ 0.0882 µM) | COc1ccc2ncc(C(=O)NC(C(=O)N[C@@H]3C(=O)N4[C@@H]3SC(C)(C)[C@@H]4C(=O)O)c3cccc(N)c3)c(O)c2n1 (stereo partly shown) [Example 23] |  | 
0.78 (≈ 1.34 µM) | 6.25 (≈ 10.7 µM) | 1.56 (≈ 2.68 µM) | 1.56 (≈ 2.68 µM) | 0.78 (≈ 1.34 µM) | 0.025 (≈ 0.0429 µM) | CSc1ccc2ncc(C(=O)NC(C(=O)N[C@@H]3C(=O)N4[C@@H]3SC(C)(C)[C@@H]4C(=O)O)c3ccc(N)cc3)c(O)c2n1 (stereo partly shown) [Example 24] |  | 
0.78 (≈ 1.37 µM) | 6.25 (≈ 11 µM) | 0.78 (≈ 1.37 µM) | 0.78 (≈ 1.37 µM) | 0.78 (≈ 1.37 µM) | 0.025 (≈ 0.044 µM) | COc1cnc2c(O)c(C(=O)NC(C(=O)NC3C(=O)N4C3SC(C)(C)C4C(=O)O)c3cccc(N)c3)cnc2n1 (stereo not shown) [Example 39] |  | 
0.78 (≈ 1.41 µM) | 6.25 (≈ 11.3 µM) | 1.56 (≈ 2.82 µM) | 1.56 (≈ 2.82 µM) | 1.56 (≈ 2.82 µM) | 0.05 (≈ 0.0905 µM) | CC1(C)S[C@@H]2[C@H](NC(=O)C(NC(=O)c3cnc4ccc(O)nc4c3O)c3cccc(N)c3)C(=O)N2[C@H]1C(=O)O (stereo partly shown) [Example 30] |  | 
0.78 (≈ 1.41 µM) | 6.25 (≈ 11.3 µM) | 0.78 (≈ 1.41 µM) | 1.56 (≈ 2.83 µM) | 0.78 (≈ 1.41 µM) | 0.025 (≈ 0.0453 µM) | CC1(C)SC2C(NC(=O)C(NC(=O)c3cnc4ccc(N)nc4c3O)c3cccc(N)c3)C(=O)N2C1C(=O)O (stereo not shown) [Example 29] |  | 
0.78 (≈ 1.38 µM) | 6.25 (≈ 11 µM) | 1.56 (≈ 2.76 µM) | 1.56 (≈ 2.76 µM) | 1.56 (≈ 2.76 µM) | 0.025 (≈ 0.0442 µM) | Cc1nc(C)c2ncc(C(=O)NC(C(=O)NC3C(=O)N4C3SC(C)(C)C4C(=O)O)c3cccc(N)c3)c(O)c2n1 (stereo not shown) [Example 35] |  | 
0.78 (≈ 1.38 µM) | 12.5 (≈ 22.1 µM) | 1.56 (≈ 2.76 µM) | 1.56 (≈ 2.76 µM) | 0.78 (≈ 1.38 µM) | 0.05 (≈ 0.0886 µM) | CCNc1ccc(C(NC(=O)c2cnc3cccnc3c2O)C(=O)N[C@@H]2C(=O)N3[C@@H]2SC(C)(C)[C@@H]3C(=O)O)cc1 (stereo partly shown) [Example 10] |  | 
0.78 (≈ 1.46 µM) | 6.25 (≈ 11.7 µM) | 1.56 (≈ 2.91 µM) | 1.56 (≈ 2.91 µM) | 1.56 (≈ 2.91 µM) | 0.05 (≈ 0.0934 µM) | Cc1ccc(C(NC(=O)c2cnc3cccnc3c2O)C(=O)N[C@@H]2C(=O)N3[C@@H]2SC(C)(C)[C@@H]3C(=O)O)cc1 (stereo partly shown) [Example 13] |  | 
0.78 (≈ 1.42 µM) | 3.13 (≈ 5.68 µM) | 0.78 (≈ 1.42 µM) | 1.56 (≈ 2.83 µM) | 1.56 (≈ 2.83 µM) | 0.025 (≈ 0.0454 µM) | Cc1ccc2ncc(C(=O)NC(C(=O)N[C@@H]3C(=O)N4[C@@H]3SC(C)(C)[C@@H]4C(=O)O)c3ccc(N)cc3)c(O)c2n1 (stereo partly shown) [Example 21] |  | 
